According to patent publication US12559529B2, “NPY2 receptor agonists” (Boehringer Ingelheim International GmbH, priority 2019, dated 2026):
*1 amine or outer side, *2 acyl side, *3 side chain or, on linkers, in order; H or OH if unused. Where a SMILES comes first, the peptide text is derived from it. Side-chain parts run from the residue outwards. The star is where a group is joined. C18 diacid = O=C(O)CCCCCCCCCCCCCCCCC(=O)*; γGlu = O=C(O)[C@H](CCC(=O)[*:2])N[*:1]; Isovaleryl = CC(C)CC(=O)*; AEEA = NCCOCCOCC(=O)O

Biological target: T1, Human Neuropeptide Y2 Receptor (Homo sapiens, UniProt P49146)
T1 construct: purchased CHEMICON HTS066M
T1 sequence (P49146 1-381): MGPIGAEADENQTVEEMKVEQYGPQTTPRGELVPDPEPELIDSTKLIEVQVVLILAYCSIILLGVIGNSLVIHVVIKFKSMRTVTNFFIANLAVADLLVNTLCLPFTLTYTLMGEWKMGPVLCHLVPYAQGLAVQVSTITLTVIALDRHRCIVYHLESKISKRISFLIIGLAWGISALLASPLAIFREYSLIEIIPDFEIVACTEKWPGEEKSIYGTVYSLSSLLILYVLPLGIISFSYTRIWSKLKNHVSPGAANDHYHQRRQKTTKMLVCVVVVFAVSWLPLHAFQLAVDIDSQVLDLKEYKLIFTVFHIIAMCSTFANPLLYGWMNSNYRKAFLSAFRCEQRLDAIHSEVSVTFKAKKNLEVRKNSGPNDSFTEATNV
Assay: Radioligand binding competition assay (RLB)
Conditions: Table 3; human 125I-PYY (1-36) 0.02 nM, Y2 receptor membranes; read-out: Ki
Summary of the method: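 Membranes from cells expressing human Y2 receptor (0.5 μg protein/well) were incubated with radioligand and serially diluted peptides in 50 mM HEPES, 5 mM MgCl2, 1 mM CaCl2, 0.2% ovalbumin, pH 7.4, for 2 h at room temperature with shaking. Bound radioactivity was collected by filtration and counted; IC50 from sigmoidal nonlinear regression.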

SMILES	Ki
CC(C)CC(=O)N[C@@H](C)C(=O)N1CCC[C@H]1C(=O)N[C@@H](CCC(=O)O)C(=O)N[C@@H](CCCCNC(=O)COCCOCCNC(=O)COCCOCCNC(=O)CC[C@H](NC(=O)CCCCCCCCCCCCCCCCC(=O)O)C(=O)O)C(=O)N1CCC[C@H]1C(=O)N[C@@H](CCC(=O)O)C(=O)N[C@@H](CCC(=O)O)C(=O)N[C@@H](C)C(=O)N[C@@H](C)C(=O)N[C@@H](CO)C(=O)N[C@@H](C)C(=O)N[C@@H](CCC(=O)O)C(=O)N[C@@H](CCC(=O)O)C(=O)N[C@@H](CC(C)C)C(=O)N[C@@H](CCC(N)=O)C(=O)N[C@@H](CCCNC(=N)N)C(=O)N[C@@H](Cc1ccc(O)cc1)C(=O)N[C@@H](Cc1ccc(O)cc1)C(=O)N[C@H](C(=O)N[C@@H](CO)C(=O)N[C@@H](CC(C)C)C(=O)N[C@@H](CCCNC(=N)N)C(=O)N[C@@H](Cc1c[nH]cn1)C(=O)N[C@@H](Cc1ccc(O)cc1)C(=O)N[C@@H](Cc1ccc(O)cc1)C(=O)N[C@@H](CC(N)=O)C(=O)N[C@@H](Cc1c[nH]c2ccccc12)C(=O)N[C@@H](CC(C)C)C(=O)N[C@H](C(=O)N[C@@H](CCCNC(=N)N)C(=O)N[C@@H](CCC(N)=O)C(=O)N[C@@H](CCCNC(=N)N)C(=O)N[C@@H](Cc1ccc(O)cc1)C(N)=O)[C@@H](C)O)C(C)C [Compound 220, N{alpha-4}-(3-methylbutanoyl)-N{epsilon-7}-[2-(2-{2-[2-(2-{2-[(4S)-4-carboxy-4-(17-carboxyheptadecanamido)butanamido]ethoxy}ethoxy)acetamido]ethoxy}ethoxy)acetamido]-[4A,7K,9E,11A,14A,18Q,22V,28Y,30W,31L]hPYY (4-36)]	2.99 nM
CC(C)CC(=O)N[C@@H](C)C(=O)N1CCC[C@H]1C(=O)N[C@@H](CCC(=O)O)C(=O)N[C@@H](CCCCNC(=O)COCCOCCNC(=O)COCCOCCNC(=O)CC[C@H](NC(=O)CCCCCCCCCCCCCCCCC(=O)O)C(=O)O)C(=O)N1CCC[C@H]1C(=O)N[C@@H](CCC(=O)O)C(=O)N[C@@H](CCC(=O)O)C(=O)N[C@@H](C)C(=O)N[C@@H](C)C(=O)N[C@@H](CCC(=O)O)C(=O)N1CCC[C@H]1C(=O)N[C@@H](CCC(=O)O)C(=O)N[C@@H](CCC(=O)O)C(=O)N[C@@H](CC(C)C)C(=O)N[C@@H](CCC(N)=O)C(=O)N[C@@H](CCCNC(=N)N)C(=O)N[C@@H](Cc1ccc(O)cc1)C(=O)N[C@@H](Cc1ccc(O)cc1)C(=O)N[C@H](C(=O)N[C@@H](CO)C(=O)N[C@@H](CC(C)C)C(=O)N[C@@H](CCCNC(=N)N)C(=O)N[C@@H](Cc1c[nH]cn1)C(=O)N[C@@H](Cc1ccc(O)cc1)C(=O)N[C@@H](Cc1ccc(O)cc1)C(=O)N[C@@H](CC(N)=O)C(=O)N[C@@H](Cc1c[nH]c2ccccc12)C(=O)N[C@@H](CC(C)C)C(=O)N[C@H](C(=O)N[C@@H](CCCNC(=N)N)C(=O)N[C@@H](CCC(N)=O)C(=O)N[C@@H](CCCNC(=N)N)C(=O)N[C@@H](Cc1ccc(O)cc1)C(N)=O)[C@@H](C)O)C(C)C [Compound 223, N{alpha-4}-(3-methylbutanoyl)-N{epsilon-7}-[2-(2-{2-[2-(2-{2-[(4S)-4-carboxy-4-(17-carboxyheptadecanamido)butanamido]ethoxy}ethoxy)acetamido]ethoxy}ethoxy)acetamido]-[4A,7K,9E,11A,13E,18Q,22V,28Y,30W,31L]hPYY (4-36)]	4.77 nM
CC(C)CC(=O)N[C@@H](C)C(=O)N1CCC[C@H]1C(=O)N[C@@H](CCC(=O)O)C(=O)N[C@@H](CCCCNC(=O)COCCOCCNC(=O)COCCOCCNC(=O)CC[C@H](NC(=O)CCCCCCCCCCCCCCCCC(=O)O)C(=O)O)C(=O)N1CCC[C@H]1C(=O)NCC(=O)N[C@@H](CCC(=O)O)C(=O)N[C@@H](CCC(=O)O)C(=O)N[C@@H](C)C(=O)N[C@@H](CO)C(=O)N1CCC[C@H]1C(=O)N[C@@H](CCC(=O)O)C(=O)N[C@@H](CCC(=O)O)C(=O)N[C@@H](CC(C)C)C(=O)N[C@@H](CCC(=O)O)C(=O)N[C@@H](CCC(N)=O)C(=O)N[C@@H](Cc1ccc(O)cc1)C(=O)N[C@@H](Cc1ccc(O)cc1)C(=O)N[C@H](C(=O)N[C@@H](CO)C(=O)N[C@@H](CC(C)C)C(=O)N[C@@H](CCCNC(=N)N)C(=O)N[C@@H](Cc1c[nH]cn1)C(=O)N[C@@H](Cc1ccc(O)cc1)C(=O)N[C@@H](Cc1ccc(O)cc1)C(=O)N[C@@H](CC(N)=O)C(=O)N[C@@H](Cc1c[nH]c2ccccc12)C(=O)N[C@@H](CC(C)C)C(=O)N[C@H](C(=O)N[C@@H](CCCNC(=N)N)C(=O)N[C@@H](CCC(N)=O)C(=O)N[C@@H](CCCNC(=N)N)C(=O)N[C@@H](Cc1ccc(O)cc1)C(N)=O)[C@@H](C)O)C(C)C [Compound 224, N{alpha-4}-(3-methylbutanoyl)-N{epsilon-7}-[2-(2-{2-[2-(2-{2-[(4S)-4-carboxy-4-(17-carboxyheptadecanamido)butanamido]ethoxy}ethoxy)acetamido]ethoxy}ethoxy)acetamido]-[4A,7K,11E,18E,19Q,22V,28Y,30W,31L]hPYY (4-36)] (Isovaleryl-APEK([AEEA-AEEA-γGlu-C18 diacid])PGEEASPEELEQYYVSLRHYYNWLTRQRY-NH2)	4.64 nM
CC(C)CC(=O)N[C@@H](C)C(=O)N1CCC[C@H]1C(=O)N[C@@H](CCC(=O)O)C(=O)N[C@@H](CCCCNC(=O)COCCOCCNC(=O)COCCOCCNC(=O)CC[C@H](NC(=O)CCCCCCCCCCCCCCCCC(=O)O)C(=O)O)C(=O)N1CCC[C@H]1C(=O)N[C@@H](CCC(=O)O)C(=O)N[C@@H](CCC(=O)O)C(=O)N[C@@H](C)C(=O)N[C@@H](C)C(=O)N[C@@H](CO)C(=O)N1CCC[C@H]1C(=O)N[C@@H](CCC(=O)O)C(=O)N[C@@H](CCC(=O)O)C(=O)N[C@H](C(=O)N[C@@H](CCC(N)=O)C(=O)N[C@@H](CCCNC(=N)N)C(=O)N[C@@H](Cc1ccc(O)cc1)C(=O)N[C@@H](Cc1ccc(O)cc1)C(=O)N[C@H](C(=O)N[C@@H](CO)C(=O)N[C@@H](CC(C)C)C(=O)N[C@@H](CCCNC(=N)N)C(=O)N[C@@H](Cc1c[nH]cn1)C(=O)N[C@@H](Cc1ccc(O)cc1)C(=O)N[C@@H](Cc1ccc(O)cc1)C(=O)N[C@@H](CC(N)=O)C(=O)N[C@@H](Cc1c[nH]c2ccccc12)C(=O)N[C@@H](CC(C)C)C(=O)N[C@H](C(=O)N[C@@H](CCCNC(=N)N)C(=O)N[C@@H](CCC(N)=O)C(=O)N[C@@H](CCCNC(=N)N)C(=O)N[C@@H](Cc1ccc(O)cc1)C(N)=O)[C@@H](C)O)C(C)C)[C@@H](C)O [Compound 226, N{alpha-4}-(3-methylbutanoyl)-N{epsilon-7}-[2-(2-{2-[2-(2-{2-[(4S)-4-carboxy-4-(17-carboxyheptadecanamido)butanamido]ethoxy}ethoxy)acetamido]ethoxy}ethoxy)acetamido]-[4A,7K,9E,11A,17T,18Q,22V,28Y,30W,31L]hPYY (4-36)]	1.21 nM
CC(C)CC(=O)N[C@@H](C)C(=O)N1CCC[C@H]1C(=O)N[C@@H](CCC(=O)O)C(=O)N[C@@H](CCCCNC(=O)COCCOCCNC(=O)COCCOCCNC(=O)CC[C@H](NC(=O)CCCCCCCCCCCCCCCCC(=O)O)C(=O)O)C(=O)N[C@@H](C)C(=O)N[C@@H](CCC(=O)O)C(=O)N[C@@H](CCC(=O)O)C(=O)N[C@@H](CC(=O)O)C(=O)N[C@@H](C)C(=O)N[C@@H](CO)C(=O)N1CCC[C@H]1C(=O)N[C@@H](CCC(=O)O)C(=O)N[C@@H](CCC(=O)O)C(=O)N[C@@H](CC(C)C)C(=O)N[C@@H](CCC(=O)O)C(=O)N[C@@H](CCC(N)=O)C(=O)N[C@@H](Cc1ccc(O)cc1)C(=O)N[C@@H](Cc1ccc(O)cc1)C(=O)N[C@H](C(=O)N[C@@H](CO)C(=O)N[C@@H](CC(C)C)C(=O)N[C@@H](CCCNC(=N)N)C(=O)N[C@@H](Cc1c[nH]cn1)C(=O)N[C@@H](Cc1ccc(O)cc1)C(=O)N[C@@H](Cc1ccc(O)cc1)C(=O)N[C@@H](CC(N)=O)C(=O)N[C@@H](Cc1c[nH]c2ccccc12)C(=O)N[C@@H](CC(C)C)C(=O)N[C@H](C(=O)N[C@@H](CCCNC(=N)N)C(=O)N[C@@H](CCC(N)=O)C(=O)N[C@@H](CCCNC(=N)N)C(=O)N[C@@H](Cc1ccc(O)cc1)C(N)=O)[C@@H](C)O)C(C)C [Compound 227, N{alpha-4}-(3-methylbutanoyl)-N{epsilon-7}-[2-(2-{2-[2-(2-{2-[(4S)-4-carboxy-4-(17-carboxyheptadecanamido)butanamido]ethoxy}ethoxy)acetamido]ethoxy}ethoxy)acetamido]-[4A,7K,8A,9E,18E,19Q,22V,28Y,30W,31L]hPYY (4-36)] (Isovaleryl-APEK([AEEA-AEEA-γGlu-C18 diacid])AEEDASPEELEQYYVSLRHYYNWLTRQRY-NH2)	12.3 nM
